Data published in ChEMBL document CHEMBL2401691, “Synthesis and optimization of a novel series of HCV NS3 protease inhibitors: 4-arylproline analogs” (Bioorg Med Chem Lett, 2013).
Values after ≈ are worked out from the molar mass of the structure shown.

What was measured:
[1] = Half life in rat liver microsomes; assay type: ADME, Microsome
[2] = Half life in human liver microsomes; assay type: ADME, Microsome
[3] = Solubility of the compound after 24 hrs at pH 7.2; assay type: physicochemical; details: buffer
[4] = Ratio of drug level in rat liver to plasma at 5 mg/kg, po after 6 hrs; assay type: ADME, organism-based; set-up: dose 5 mg/kg, route oral
[5] = Half life in rat at 2 mg/kg, iv; assay type: ADME, organism-based; set-up: dose 2 mg/kg, route intravenous; details: in vivo
[6] = Drug uptake in rat liver at 5 mg/kg, po after 6 hrs; assay type: ADME, organism-based; set-up: dose 5 mg/kg, route oral; details: read-out: Drug uptake
[7] = Oral bioavailability in rat at 5 mg/kg; assay type: ADME, organism-based; details: in vivo
[8] = Plasma concentration in rat at 5 mg/kg, po after 6 hrs; assay type: ADME, organism-based; set-up: dose 5 mg/kg, route oral
[9] = AUC (0 to infinity) in rat at 5 mg/kg, po; assay type: ADME, organism-based; set-up: time infinity, dose 5 mg/kg, route oral; details: plasma
[10] = Cmax in rat at 5 mg/kg, po; assay type: ADME, organism-based; set-up: dose 5 mg/kg, route oral; details: in vivo
[11] = Total clearance in rat at 2 mg/kg, iv; assay type: ADME, organism-based; set-up: dose 2 mg/kg, route intravenous; details: in vivo
[12] = Volume of distribution at steady state in rat at 2 mg/kg, iv; assay type: ADME, organism-based; set-up: dose 2 mg/kg, route intravenous; details: in vivo, read-out: Vdss

SMILES | half-life [1] [h] | half-life [2] [h] | solubility at 24 h [3] [µg/mL] | other results
C=C[C@@H]1C[C@]1(NC(=O)[C@@H]1C[C@@](OC)(c2ccc(-c3cc(C)ccc3OC)nc2)CN1C(=O)[C@@H](NC(=O)OC1CCCC1)C(C)(C)C)C(=O)NS(=O)(=O)C1CC1 | 1.42 | 1.4 | 310 (≈ 397 µM) | 
C=C[C@@H]1C[C@]1(NC(=O)[C@@H]1C[C@@](OC)(c2ccc(-c3cccnc3)cc2)CN1C(=O)[C@@H](NC(=O)OC1CCCC1)C(C)(C)C)C(=O)NS(=O)(=O)C1CC1 | 2.17 | 0.883 | 940 (≈ 1280 µM) | 
C=C[C@@H]1C[C@]1(NC(=O)[C@@H]1C[C@@](OC)(c2ccc(-c3cnn(C)c3)cc2)CN1C(=O)[C@@H](NC(=O)OC1CCCC1)C(C)(C)C)C(=O)NS(=O)(=O)C1CC1 | 2 | 1.37 | 540 (≈ 731 µM) | 
C=C[C@@H]1C[C@]1(NC(=O)[C@@H]1C[C@@](OC)(c2ccc(-c3nccs3)nc2)CN1C(=O)[C@@H](NC(=O)OC1CCCC1)C(C)(C)C)C(=O)NS(=O)(=O)C1CC1 |  | 2.28 | > 920 | 
C=C[C@@H]1C[C@]1(NC(=O)[C@@H]1C[C@@](OC)(c2ccc(-c3ccccc3OC)cc2)CN1C(=O)[C@@H](NC(=O)OC1CCCC1)C(C)(C)C)C(=O)NS(=O)(=O)C1CC1 |  | 0.717 | 36 (≈ 47.1 µM) | 
C=C[C@@H]1C[C@]1(NC(=O)[C@@H]1C[C@@](OC)(c2ccc(-c3ccncc3)cc2)CN1C(=O)[C@@H](NC(=O)OC1CCCC1)C(C)(C)C)C(=O)NS(=O)(=O)C1CC1 | 1.83 | 1.32 | > 790 | 
C=C[C@@H]1C[C@]1(NC(=O)[C@@H]1C[C@@](OC)(c2ccc(-c3cscn3)cc2)CN1C(=O)[C@@H](NC(=O)OC1CCCC1)C(C)(C)C)C(=O)NS(=O)(=O)C1CC1 | 3.67 | 0.9 | 540 (≈ 728 µM) | 
C=C[C@@H]1C[C@]1(NC(=O)[C@@H]1C[C@@](OC)(c2ccc(-c3ccccc3)cc2)CN1C(=O)[C@@H](NC(=O)OC1CCCC1)C(C)(C)C)C(=O)NS(=O)(=O)C1CC1 | 1.98 | 1.18 | 43 (≈ 58.5 µM) | Kp at 6 h [4]: 45; half-life [5]: 2.94 h; concentration at 6 h [6]: 2300 nM; bioavailability [7]: 33%; concentration at 6 h [8]: 50 nM; AUC(0-inf) [9]: 1.32 µM·h; Cmax [10]: 320 nM; clearance [11]: 28 mL/min/kg; Vd [12]: 3.04 L/kg
C=C[C@@H]1C[C@]1(NC(=O)[C@@H]1C[C@@](OC)(c2ccc(-c3ccccc3)nc2)CN1C(=O)[C@@H](NC(=O)OC1CCCC1)C(C)(C)C)C(=O)NS(=O)(=O)C1CC1 | 2 | 1.45 | 600 (≈ 815 µM) | 
C=C[C@@H]1C[C@]1(NC(=O)[C@@H]1C[C@@](OC)(c2ccc(-c3nccs3)cc2)CN1C(=O)[C@@H](NC(=O)OC1CCCC1)C(C)(C)C)C(=O)NS(=O)(=O)C1CC1 | 1.1 | 1.1 | 452 (≈ 609 µM) | 
C=C[C@@H]1C[C@]1(NC(=O)[C@@H]1C[C@@](OC)(c2ccc(-c3cccc(OC)c3)cc2)CN1C(=O)[C@@H](NC(=O)OC1CCCC1)C(C)(C)C)C(=O)NS(=O)(=O)C1CC1 |  | 1.12 | 19 (≈ 24.8 µM) | 
C=C[C@@H]1C[C@]1(NC(=O)[C@@H]1C[C@@](OC)(c2ccc(-c3ccc(OC)cc3)cc2)CN1C(=O)[C@@H](NC(=O)OC1CCCC1)C(C)(C)C)C(=O)NS(=O)(=O)C1CC1 | 1.4 | 0.85 | 17 (≈ 22.2 µM) | 
C=C[C@@H]1C[C@]1(NC(=O)[C@@H]1C[C@@](OC)(c2ccc(-c3ccc(C)cn3)cc2)CN1C(=O)[C@@H](NC(=O)OC1CCCC1)C(C)(C)C)C(=O)NS(=O)(=O)C1CC1 |  | 0.917 |  | 
